The RepoRT retention time repository (doi:10.1016/j.chroma.2019.01.023)
Counter-ions that a name gives are not always drawn.

Assays:
Settings in all cases: stereoisomer not certain
[1] = HILIC, Merck SeQuant ZIC-pHILIC, 150 × 2.1 mm, 5 µm, 40 °C, 0.3 mL/min, estimated dead time 1.1 min; A: acetonitrile; B: water + 2.8 mM ammonium formate, pH 9; gradient (min/%B) 0/5 1/5 10/51 13/51 13.1/5 20/5
[2] = RP, Phenomenex Kinetex C18, 150 × 2.1 mm, 1.7 µm, 30 °C, 0.3 mL/min, estimated dead time 1.1 min; A: water + 0.1% formic acid, pH 3; B: acetonitrile + 0.1% formic acid, pH 3; gradient (min/%B) 0/2 14/100 17/100 17.1/2 25/2
[3] = HILIC, Waters ACQUITY UPLC BEH Amide, 150 × 2.1 mm, 1.7 µm, 40 °C, 0.5 mL/min, estimated dead time 0.66 min; A: 5% water + 95% acetonitrile; B: 70% water + 30% acetonitrile + 10 mM ammonium formate, pH 6.5; gradient (min/%B) 0/0 2/0 20/70 23/70 24/0 31/0

LC retention time [1] [min]	LC retention time [2] [min]	LC retention time [3] [min]	SMILES
1.49	9.28	–	O=C(O)c1ccc2ccccc2c1[O-] [1-HYDROXY-2-NAPHTHOATE]
8.97	–	13.2	Cn1cnc(C[C@H](N)C(=O)O)c1 [1-METHYL-L-HISTIDINE]
–	2.37	–	NCC(N)C(=O)O (stereo not drawn) [2,3-DIAMINOPROPIONATE]
5.74	4.92	–	O=C(O)c1cccc(O)c1[O-] [2,3-DIHYDROXYBENZOATE]
6.29	4.46	–	O=C(O)c1cc(O)ccc1[O-] [2,5-DIHYDROXYBENZOATE]
–	9.58	–	CC(=O)N[C@@H]1[C@@H](O)[C@H](O)[C@@H](CO)O[C@H]1N [2-ACETAMIDO-2-DEOXY-BETA-D-GLUCOSYLAMINE]
8.23	–	4.02	O=CC[C@@H](O)[C@H](O)[C@H](O)CO [2-DEOXY-D-GLUCOSE]
–	2.37	–	CCC(O)C(=O)[O-] (stereo not drawn) [2-HYDROXYBUTYRATE]
–	8.62	–	CCCCCCCCCC(C)=O [2-UNDECANONE]
8.57	1.7	–	O=C(O)C(O)c1ccc(O)c(O)c1 (stereo not drawn) [3,4 DIHYDROXYMANDELATE]
7.81	3.93	–	O=C(O)Cc1ccc(O)c(O)c1 [3,4-DIHYDROXYPHENYLACETATE]
6.22	1.82	–	OCC(O)c1ccc(O)c(O)c1 (stereo not drawn) [3,4-DIHYDROXYPHENYLGLYCOL]
6.39	4.87	–	O=C(O)c1cccc([O-])c1 [3-HYDROXYBENZOATE]
5.88	4.82	–	O=C(O)Cc1cccc(O)c1 [3-HYDROXYPHENYLACETATE]
6.9	2.94	–	COc1cc(C(O)C(=O)O)ccc1O (stereo not drawn) [3-METHOXY-4-HYDROXYMANDELATE]
–	3.31	–	Cc1ccc(O)c(O)c1 [4-METHYLCATECHOL]
6.24	–	5.31	Cc1cnc(=O)[nH]c1N [5-METHYLCYTOSINE]
–	1.36	–	Nc1ncnc2c1ncn2C1OC(COP(=O)(O)O)C(OP(=O)(O)O)C1O (stereo not drawn) [ADENOSINE 3',5'-DIPHOSPHATE]
8.23	1.41	–	Nc1ncnc2c1ncn2C1OC(COP(=O)(O)O)C(O)C1O (stereo not drawn) [ADENOSINE-MONOPHOSPHATE]
8.82	1.38	–	NC(=O)c1ncn(C2OC(COP(=O)(O)O)C(O)C2O)c1N (stereo not drawn) [AICAR]
7.96	–	4.85	NC(=O)NC1NC(=O)NC1=O (stereo not drawn) [ALLANTOIN]
8.78	–	6.89	NC(CCCC(=O)O)C(=O)O (stereo not drawn) [AMINOADIPATE]
5.89	2.04	–	Nc1ccccc1S(=O)(=O)O [ANILINE-2-SULFONATE]
10.1	–	12.5	Cn1cncc1CC(NC(=O)CCN)C(=O)O (stereo not drawn) [ANSERINE]
3.62	–	14.2	NC(N)=NCCCC(N)C(=O)O (stereo not drawn) [ARGININE]

LC retention time [1] [min]	LC retention time [2] [min]	LC retention time [3] [min]	SMILES
9.25	–	11.5	NC(=O)CC(N)C(=O)O (stereo not drawn) [ASPARAGINE]
8.52	1.4	–	NC(=O)c1ccc[n+](C2OC(COP(=O)(O)OP(=O)([O-])OCC3OC(n4cnc5c(N)ncnc54)C(O)C3O)C(O)C2O)c1 (stereo not drawn) [BETA-NICOTINAMIDE ADENINE DINUCLEOTIDE]
10.5	–	12.3	NCCC(=O)NC(Cc1cnc[nH]1)C(=O)O (stereo not drawn) [CARNOSINE]
8.89	–	13.4	C[N+](C)(C)CCOP(=O)(O)OP(=O)([O-])OCC1OC(n2ccc(N)nc2=O)C(O)C1O (stereo not drawn) [CITICOLINE]
8.8	1.94	–	CC(O)(CC(=O)O)C(=O)O (stereo not drawn) [CITRAMALATE]
10.2	1.57	–	O=C(O)CC(O)(CC(=O)O)C(=O)O [CITRATE]
9.31	–	11.3	NC(=O)NCCCC(N)C(=O)O (stereo not drawn) [CITRULLINE]
8.59	–	9.87	CN(CC(=O)O)C(=N)N [CREATINE]
5.92	–	4.34	CN1CC(=O)NC1=N [CREATININE]
8.92	–	10.8	NC(CS(=O)(=O)O)C(=O)O (stereo not drawn) [CYSTEATE]
6.28	–	1.86	O=CC(O)C1OC(=O)C(O)C1O [D-GLUCURONOLACTONE]
7.95	1.55	–	Nc1ncnc2c1ncn2C1CC(O)C(COP(=O)(O)O)O1 (stereo not drawn) [DEOXYADENOSINE MONOPHOSPHATE]
8.61	1.4	–	Nc1ccn(C2CC(O)C(COP(=O)(O)O)O2)c(=O)n1 (stereo not drawn) [DEOXYCYTIDINE MONOPHOSPHATE]
7.81	–	7.2	O=C1CC(C(=O)[O-])NC(=O)N1 (stereo not drawn) [DIHYDROOROTATE]
–	3.46	–	CCC(C(=O)O)C(=O)O [ETHYLMALONATE]
10.5	–	10.6	NC1C(O)OC(COS(=O)(=O)O)C(O)C1O (stereo not drawn) [GLUCOSAMINE 6-SULFATE]
9.03	–	11	NC(=O)CCC(N)C(=O)O (stereo not drawn) [GLUTAMINE]
9.05	–	10.2	NC(N)=NCC(=O)O [GUANIDINOACETATE]
9	–	10.3	NC(N)=NC(CC(=O)O)C(=O)O (stereo not drawn) [GUANIDINOSUCCINATE]
8.91	–	10.5	NC(CCO)C(=O)O (stereo not drawn) [HOMOSERINE]
–	4.62	–	O=S(=O)(O)Oc1c[nH]c2ccccc12 [INDOXYL SULFATE]
–	3.16	–	C=C(CC(=O)O)C(=O)O [ITACONATE]
7.2	–	3.12	O=C1OC(C(O)CO)C(O)C1O [L-GULONOLACTONE]
9.37	–	11.8	OCC1OC(OCC2OC(O)C(O)C(O)C2O)C(O)C(O)C1O (stereo not drawn) [MELIBIOSE]
6.42	–	4.01	COC1OC(CO)C(O)C(O)C1O (stereo not drawn) [METHYL GALACTOSIDE]

LC retention time [1] [min]	LC retention time [2] [min]	LC retention time [3] [min]	SMILES
–	2.19	–	CC(C(=O)O)C(=O)O [METHYLMALONATE]
9.47	–	11	OC1C(O)C(O)C(O)C(O)C1O (stereo not drawn) [MYOINOSITOL]
7.88	–	8.1	CC(=O)NC(CC(N)=O)C(=O)O (stereo not drawn) [N-ACETYLASPARAGINE]
7.56	–	5.57	CC(=O)NC(CO)C(=O)O (stereo not drawn) [N-ACETYLSERINE]
7.76	–	4.89	O=CNCC(=O)O [N-FORMYLGLYCINE]
8.28	–	11.6	CNC(CC(=O)O)C(=O)O (stereo not drawn) [N-METHYLASPARTATE]
8.12	–	11.1	CNC(CCC(=O)O)C(=O)O (stereo not drawn) [N-METHYLGLUTAMATE]
–	1.41	–	NC(=O)c1ccc[n+](C2OC(COP(=O)(O)OP(=O)(O)OCC3OC(n4cnc5c(N)ncnc54)C(OP(=O)(O)O)C3O)C(O)C2O)c1 (stereo not drawn) [NADP]
–	1.45	–	NC(=O)c1ccc[n+](C2OC(COP(=O)(O)OP(=O)(O)OCC3OC(n4cnc5c(=O)[nH]cnc54)C(O)C3O)C(O)C2O)c1 (stereo not drawn) [NICOTINAMIDE HYPOXANTHINE DINUCLEOTIDE]
7.34	–	3.49	O=C([O-])c1cc(=O)[nH]c(=O)[nH]1 [OROTATE]
–	1.38	–	O=C(O)C1CCCCN1 (stereo not drawn) [PIPECOLATE]
–	8.69	–	CC(=O)C1CCC2C3CC=C4CC(OS(=O)(=O)O)CCC4(C)C3CCC12C (stereo not drawn) [PREGNENOLONE SULFATE]
7.67	–	8.55	O=C(O)C1CCCN1 (stereo not drawn) [PROLINE]
–	1.5	–	Cc1ncc(COP(=O)(O)O)c(C=O)c1O [PYRIDOXAL-PHOSPHATE]
6.4	–	2.47	NC(CSCC(=O)O)C(=O)O (stereo not drawn) [S-CARBOXYMETHYLCYSTEINE]
–	–	5.14	CCCCCCCCCCCCCCCC(O)C(N)CO (stereo not drawn) [SPHINGANINE]
–	–	5.7	CCCCCCCCCCCCCC=CC(O)C(COP(=O)([O-])OCC[N+](C)(C)C)NC(=O)CCCCCCCCCCCCCCCCC (stereo not drawn) [SPHINGOMYELIN]
8.77	–	10.2	OCC1OC(OC2(CO)OC(CO)C(O)C2O)C(O)C(O)C1O (stereo not drawn) [SUCROSE]
9.1	–	8.04	NCCS(=O)(=O)O [TAURINE]
–	–	1.17	NC(N)=S [THIOUREA]
–	–	10.5	CC(O)C(N)C(=O)O (stereo not drawn) [THREONINE]
9.23	–	11.3	OCC1OC(OC2OC(CO)C(O)C(O)C2O)C(O)C(O)C1O (stereo not drawn) [TREHALOSE]
–	–	7.85	C[n+]1cccc(C(=O)[O-])c1 [TRIGONELLINE]
7.72	–	8.75	CC(C)C(N)C(=O)O (stereo not drawn) [VALINE]

SMILES	LC retention time [1] [min]	LC retention time [2] [min]	LC retention time [3] [min]
O=C(O)Cc1cnc[nH]1 [4-IMIDAZOLEACETATE]	8.13	–	9.86
O=Cc1ccccc1 [BENZALDEHYDE]	–	3.93	–
O=C([O-])Cc1ccccc1 [PHENYLACETATE]	–	3.97	–
NCCc1ccc(O)cc1 [TYRAMINE]	–	–	7.72
